Patent US20100113602A1, “USE OF HISTONE DEACETYLASE INHIBITORS FOR THE TREATMENT OF CENTRAL NERVOUS SYSTEM METASTASES” (The United States of America,as represented by the …, priority 2007, published 2010)
Read-outs that look alike come from different tables or passages of the source.

Tests used:
231-BR cells [1] = assay: MTT proliferation / colonization assay of 231-BR cells; type: cell-based, human
Method: The prepared cells are plated at a density of 15,000 cells/well in a 96 well plate and incubated for 3 hours to permit attachment. Cells are then washed with PBS, and media containing either 0.1% or 1% FBS is added to the cells. […] After a 72-hour incubation, 0.5 mg/mL MTT (Sigma, St. Louis, Mo.) is added and plates are incubated for 2 hours. Media is then aspirated, and MTT dissolved in DMSO for 30 minutes, after which the absorbance is read at a wavelength of 570 nm. […] Data in Table 4 is shown as percent of colonies formed±standard deviation compared to untreated controls. Results are representative of three independent experiments in quintuplicate. Analysis of variance (ANOVA) is used to assess in vitro functions of vehicle treated versus vorinostat treated cells. P values can be two-tailed. Tests can be performed using GraphPad InStat version 3.0 software.

231-BR cells [2] = assay: 48-well Boyden chamber chemotaxis (motility) assay; type: cell-based, human; details: 24 hours drug treatment, 4 hours migration, SAHA 5 μM, depsipeptide 10 ng/mL, VPA 10 mM, TSA 100 ng/mL, ± standard deviation; for Motility Data, mean number of cells that migrate per well, 0.5% FCS: 0.5% FCS chemoattractant; for Motility Data, mean number of cells that migrate per well, Control: Control (no FCS chemoattractant)
Method: 231-BR Cells are used as described in Example 2. A 48-well Boyden chemotaxis chamber is used. Polycarbonate PVP-free Nucleopore filters (8 μm pore size) are coated with 0.01% collagen (BD Bioscience). […] Drug concentrations used are as described in Example 2. 231-BR cells, after 24 hours of vorinostat, other drug treatment, or control are added to the top chamber in DMEM with 1 mg/ml BSA at a concentration of 2×10^6 cells/ml. Chambers are incubated for 4 hours in a 37° C. incubator with 5% CO2. After chambers are disassembled, filters are fixed and stained with reagents from a Diff-Quik® Kit (Fischer Scientific). Cells that migrate through the Boyden chamber are counted using a light microscope. Representative areas are counted to determine the number of cells that have migrated for each well. Data in Table 5 are shown as mean number of cells±standard deviation that migrate per well. Analysis of variance (ANOVA) is used to assess in vitro functions of vehicle treated versus vorinostat treated cells. P values can be two-tailed. Tests can be performed using GraphPad InStat version 3.0 software.

[3] = system: acetyl Histone H3, acetyl histone H4, p21; assay: Western blot of 231-BR cell lysates after HDI treatment; type: cell-based, human; details: 231-BR cells; depsipeptide 10 ng/mL or SAHA 5 μM; 0, 8, 24, 48 hours
Method: All cell lines are deemed free of mycoplasma and human pathogens and test negative in mouse antibody production (MAP) tests. […] Drug solution is added once at the beginning and left on the cells for the indicated duration (0, 8, 24, and 48 hours). Controls are performed in the same way with the same amount of vehicle solution for each drug, but without the drug. The vehicle can be DMSO. Cells are lysed according to standard procedures and Western blotting is performed. Primary antibodies specific to the targeted proteins are used including antibodies specific to acetyl Histone H3, acetyl histone H4, p21, and α-tubulin. Horseradish peroxidase-conjugated secondary antibodies purchased from Santa Cruz Biotechnology (Santa Cruz, Calif.) are used at dilutions of 1:5000. Proteins are visualized using enhanced chemilluminescence (Cell Signaling) and autoradiography. […] As histones H3 and H4 become hyperacetylated, protein levels of the cyclin-dependent kinase inhibitor p21 increase. Those changes indicate HDAC inhibition.

[4] = system: MDA-MB-231-BR cells brain metastases; assay: Brain metastasis model, intracardiac MDA-MB-231-BR cells in nude mice (Example 5); type: in vivo, Balb/c nude mice; design: key to Mean Large Mets: mean no. of large metastases (>50 microns^2) per mouse; key to Mean Micromets: mean no. of metastases in 10 step sections of one hemisphere; details: for Mean Large Mets: large >50 microns^2
Method: Cells are prepared as described in Example 2 with additional preparation as follows. The retroviral vector pLEGFP-C1 (BD Biosciences, San Jose, Calif.) is transfected into murine fibroblast PT67 packaging cells using Effectene reagent according to the manufacturer's protocol (Qiagen, Germantown, Md.). After 24 hours, enhanced green fluorescent protein (EGFP)-expressing cells are selected in the presence of 1 mg/mL G418 (Invitrogen, Carlsbad, Calif.), and colonies are expanded. Virus is harvested and filtered through a 0.45 um Millex-HA syringe-driven filter (Millipore, Billerica, Mass.) and 231-BR cells are infected with retrovirus for 6 hours. The following day, 231-BR cells are selected in the presence of 0.8 mg/mL G418, and EGFP expression in 95-99% of the cells is confirmed by fluorescent microscopy.
All animal experiments are conducted under an approved Animal Use Agreement with the NCI. Under isoflurane anesthesia, 20 female Balb/c nude mice (Charles River Laboratories, Frederick, Md.) 5-7 weeks old are inoculated with 500,000 (Experiment 1) or 100,000 (Experiment 2) MDA-MB-231-BR cells in 0.1 mL PBS in the left ventricle of the heart. Mice are monitored daily for signs of ill health. Three days after tumor cell inoculation mice are randomized to treatment groups and treatment is started. […] After 21 days of treatment, mice are euthanized under CO2 anesthesia and brains are excised for imaging. EGFP is detected in whole brains by the Maestro 420 In Vivo Spectral Imaging System (Cambridge Research and Instrumentation, Woburn, Mass.), using software (e.g., Nuance Technology, Burlington, Mass.) to distinguish or unmix images of fluorescence from multiple sources. After imaging, mouse brains are bisected along the sagittal plane and the right hemisphere of the brain is fixed in 4% paraformaldehyde for 24-48 hours at 4° C., then transferred to 20% sucrose overnight at 4° C. and frozen (for EGFP detection/histology). The left hemisphere is forallin-fixed and paraffin embedded for immunohistochemistry. Ten micron brain sections are serially cut and processed for either EGFP microscopy or histology. To detect EGFP, slides are dried at room temperature and 25 uL Vectashield HardSet Mounting Media with DAPI was added (Vector Laboratories, Burlingame, Calif.). Images are captured on a Zeiss Axioskop 2 microscope (Thornwood, N.Y.) using OpenLab software (Improvision, Lexington, Mass.). For staining with hematoxylin and eosin, a standard protocol is followed. Ten serial sections every 300 microns through the brain are analyzed using a 5× objective on a Zeiss microscope, containing an ocular grid with squares of 0.8 mm^2.
Every micro- or large (>50 microns^2) metastasis in each section is tabulated. Data are representative of two experiments conducted. Wilcoxon rank sum test is used to compare the number of total metastases and the number of large metastases in vehicle treated versus vorinostat treated mice. Tests can be performed using GraphPad InStat version 3.0 software. “Mean Micromets” in Tables 6 and 7 refer to the mean number of metastases counted in 10 step sections from one hemisphere of the brain. “Mean Large Mets” in Tables 6 and 7 refer to the size of metastases determined by a 16 mm^2 ocular grid. Large metastases are greater than 50 microns^2.

[5] = system: MDA-MB-231BR cells brain metastases; assay: Brain metastasis model, timing of SAHA administration (Example 6); type: in vivo, nude mice; details: for Large Metastases, Mean number per section: vehicle 7.65; for Micrometastases, Mean number per section: vehicle 170
Method: As described in Example 5, 175,000 MDA-MB-231BR cells in 0.1 mL PBS are injected into the left cardiac ventricle of the heart of nude mice. […] On day [X], mice are euthanized under CO2 anesthesia and brains are excised for imaging as described in Example 5.
Micro- and large (>50 microns^2) metastases are tabulated. The data set forth in Table 8 are representative of two experiments.

[6] = mouse, in vivo
Method: All animal experiments are conducted under an approved Animal Use Agreement with the NCI. Under isoflurane anesthesia, 20 female Balb/c nude mice (Charles River Laboratories, Frederick, Md.) 5-7 weeks old are inoculated with 500,000 (Experiment 1) or 100,000 (Experiment 2) MDA-MB-231-BR cells in 0.1 mL PBS in the left ventricle of the heart. Mice are monitored daily for signs of ill health. Three days after tumor cell inoculation mice are randomized to treatment groups and treatment is started. […]. After 21 days of treatment, mice are euthanized under CO2 anesthesia and brains are excised for imaging. EGFP is detected in whole brains by the Maestro 420 In Vivo Spectral Imaging System (Cambridge Research and Instrumentation, Woburn, Mass.), using software (e.g., Nuance Technology, Burlington, Mass.) to distinguish or unmix images of fluorescence from multiple sources. […] Ten serial sections every 300 microns through the brain are analyzed using a 5× objective on a Zeiss microscope, containing an ocular grid with squares of 0.8 mm^2.
. […] “Mean Micromets” in Tables 6 and 7 refer to the mean number of metastases counted in 10 step sections from one hemisphere of the brain. “Mean Large Mets” in Tables 6 and 7 refer to the size of metastases determined by a 16 mm^2 ocular grid. […]

[7] = 231-BR cells, 72-hour incubation; SAHA 5 μM, depsipeptide 10 ng/mL, VPA 10 mM, TSA 100 ng/mL; ± standard deviation
[8] = 150 mg/kg SAHA IP once daily starting on day 3 post-injection until day 21
[9] = 150 mg/kg SAHA IP once daily starting on day 7 post-injection until day 21
[10] = 150 mg/kg SAHA IP once daily starting on day 14 post-injection until day 21

SMILES: CC(/C=C/C(=O)NO)=C\[C@@H](C)C(=O)c1ccc(N(C)C)cc1 [Trichostatin (TSA), trichostatin]
- Colonization Data, % Control (231-BR cells [1]; [7]): 30 ± 3.4 % Control
- Motility Data, mean number of cells that migrate per well, 0.5% FCS (231-BR cells [2]): 785 ± 17
- Motility Data, mean number of cells that migrate per well, Control (231-BR cells [2]): 108 ± 13

SMILES: CCCC(CCC)C(=O)O [Valporic Acid, valproic acid]
- Colonization Data, % Control (231-BR cells [1]; [7]): 46 ± 5.3 % Control
- Motility Data, mean number of cells that migrate per well, 0.5% FCS (231-BR cells [2]): 755 ± 37
- Motility Data, mean number of cells that migrate per well, Control (231-BR cells [2]): 242 ± 55

SMILES: C/C=C1\NC(=O)[C@H]2CSSCC/C=C/[C@H](CC(=O)N[C@H](C(C)C)C(=O)N2)OC(=O)[C@H](C(C)C)NC1=O [Depsipeptide]
- acetylation of histones H3 and H4 (Western blot) [3]: hyperacetylated
- protein levels of the cyclin-dependent kinase inhibitor p21 (Western blot) [3]: increase
- Colonization Data, % Control (231-BR cells [1]; [7]): 10 ± 2.5 % Control
- dose at which noticeable inhibition occurs (231-BR cells [1]; 231BR cells): ≥ 0.001 µg/mL
- IC50 (231-BR cells [1]; Homo sapiens, read-out: IC50 (growth inhibition, absorbance at 570 nm)): 1.5 µg/mL
- Motility Data, mean number of cells that migrate per well, 0.5% FCS (231-BR cells [2]): 678 ± 33
- Motility Data, mean number of cells that migrate per well, Control (231-BR cells [2]): 129 ± 23

SMILES: O=C(CCCCCCC(=O)Nc1ccccc1)NO [SAHA, N-Hydroxy-N′-phenyloctanediamide]
- acetylation of histones H3 and H4 (Western blot) [3]: hyperacetylated
- Colonization Data, % Control (231-BR cells [1]; [7]): 47 ± 1.9 % Control
- IC50 (231-BR cells [1]; Homo sapiens; read-out: IC50 (growth inhibition, absorbance at 570 nm)): 12.6 µM
- Motility Data, mean number of cells that migrate per well, 0.5% FCS (231-BR cells [2]): 756 ± 56
- Motility Data, mean number of cells that migrate per well, Control (231-BR cells [2]): 67 ± 6
- Mean Micromets ([4]; Experiment 1 (500,000 cells), 100 mg/kg SAHA IP once daily 21 days, vehicle 205.5): 140.4
- Mean Micromets ([4]; Experiment 1 (500,000 cells), 150 mg/kg SAHA IP once daily 21 days (lowered from 200 mg/kg), vehicle 205.5): 151.8
- Mean Large Mets ([4]; Experiment 1, 100 mg/kg SAHA IP once daily 21 days, vehicle 6.8): 2.9
- Mean Large Mets ([4]; Experiment 1, 150 mg/kg SAHA IP once daily 21 days (lowered from 200 mg/kg), vehicle 6.8): 3.5
- Mean Micromets ([4]; Experiment 2 (100,000 cells), 100 mg/kg SAHA IP once daily 21 days, vehicle 72.5): 78.3
- Mean Micromets ([4]; Experiment 2 (100,000 cells), 150 mg/kg SAHA IP once daily 21 days, vehicle 72.5): 66.6
- Mean Large Mets ([4]; Experiment 2, 100 mg/kg SAHA IP once daily 21 days, vehicle 3.3): 4.4
- Mean Large Mets ([4]; Experiment 2, 150 mg/kg SAHA IP once daily 21 days, vehicle 3.3): 1.5
- number of large (>50 micron^2) brain metastases, in words ([4]; in vivo, mice, IP SAHA vs vehicle): reduces the number
- Large Metastases, Mean number per section [5, 8]: 2.89
- Micrometastases, Mean number per section [5, 8]: 122
- Large Metastases, Mean number per section [5, 9]: 4.94
- Micrometastases, Mean number per section [5, 9]: 151
- Large Metastases, Mean number per section [5, 10]: 5.96
- Micrometastases, Mean number per section [5, 10]: 171
- reduction in large metastases ([5]; 150 mg/kg SAHA starting on day 3 post-injection, vs vehicle, P<0.001): 57%
- reduction in micrometastases ([5]; 150 mg/kg SAHA starting on day 3 post-injection, vs vehicle, P=0.017): 28%
- reduction (large metastases) ([5]; 150 mg/kg SAHA starting on day 7 post-injection, vs vehicle, P=0.008): 34%
- reduction in large metastases ([5]; 150 mg/kg SAHA starting on day 14 post-injection, vs vehicle, not statistically significant): 22%
- toxicity of the higher dosage [6]: toxicity
